# Non-standard residues stand in square brackets, D forms with d.
# Legend:
# [1] = tested on: Type I procollagen; test: Western blot of type I procollagen / soluble type I collagen in fibroblast cultures after 72 hours of treatment; type: cell-based, human; settings: fibroblasts, peptide 20 mM, no FBS, compared with TGF-β1, SA1III, Peptide 1, Peptide 2 (FIG. 1)
# From the text: Neonatal human dermal fibroblasts (NHDF) have been obtained from Lonza. Cultures of adult dermal fibroblasts have been prepared from cutaneous skin biopsies of healthy donors having different ages, as described in Pani et al. J. Alzheimer's Dis. (2009) 18:829-41, C6 ([…]), C3 (person) and C12 (person). A written informed consent to use these dermal cells was obtained from all the donor subjects involved, according to the Guidelines indicated by the Ethics Committee of the Careggi University Hospital (Florence, Italy) and by the Helsinki Declaration of 1975, as reviewed in the 1983. All cell cultures have been subjected to a similar number of steps, from 6 to 9, at the beginning of the experiments, and were preserved in the modified Dulbecco Eagle culture medium (DMEM, Lonza) added with FBS 10% (Gibco), 100 units/ml of penicillin G, 0.05 mg/ml of streptomycin and glutamine 2 mM (PAN-Biotech GmbH), at 37° C. in a humidified incubator containing 5% of CO2.
# The cells were seeded in 12-wells plates (30000 cells per well) and treated the day after with the peptide AAT11RI (20 mM). […]
# All treatments have been carried out in the absence of FBS to avoid interferences in the electrophoretic migration. […] The protein content in the lysates was measured using the Bio-Rad DC protein assay kit. […]
# [2] = tested on: extracellular collagen; settings: fibroblasts obtained from subjects of various ages; cited from earlier work
Substance,ability to increase the concentration of procollagen in vitro [1],levels of extracellular collagen [2]
Ac-DAsn-DVal-DVal-DLys-NH2 (Ac-[dN][dV][dV][dK]-NH2) [AAT11RI],surprisingly higher than all the other products tested,–
"SA1-III: C-terminal peptide fragment 409-418 of the serpin A1 molecule, positive control (MGKVVNPTQK)",–,increased levels of extracellular collagen

# From patent publication US20260008811A1, “BIOACTIVE PEPTIDES AND COMPOSITIONS COMPRISING THEM” (ESPIKEM S.R.L., priority 2019, published 2026)
